Test results from patent US20240269136A1, “EGFR INHIBITOR AND PERK ACTIVATOR IN COMBINATION THERAPY AND THEIR USE FOR TREATING CANCER” (Genentech, Inc., priority 2021, published 2024).
Read-outs that look alike come from different tables or passages of the source.

Tested on: PC9 cells
Test: CellTiter-Glo Luminescent Cell Viability Assay, PC9 cells, EGFR inhibitors and PERK activators alone and in combination
Type: cell-based
Method: PC9 cells were seeded in replicates in 96-well plates and allowed to attach overnight. The following day cells were treated with the indicated compounds or compound combinations at the indicated concentrations. Cell survival was measured 72 h post-treatment using CellTiter-Glo Luminescent Cell Viability Assay (Promega, G7572). Quantification of the fold decrease in cell viability was determined for single agent activity and for combinations relative to the DMSO-treated control (as shown in Table 1A and 1B). Mean (u) and standard deviation (o) was determined for biological triplicates using Microsoft Excel.

[1] = combination: CCT-020312 2 μM + EGFRi 0.1 μM, PC9, 72 h, relative to DMSO
[2] = combination: CCT-020312 2 μM + EGFRi 1 μM, PC9, 72 h, relative to DMSO
[3] = combination: DHBDC 50 μM + EGFRi 0.1 μM, PC9, 72 h, relative to DMSO
[4] = combination: DHBDC 50 μM + EGFRi 1 μM, PC9, 72 h, relative to DMSO
[5] = combination: IPA 1 μM + EGFRi 0.1 μM, PC9, 72 h, relative to DMSO
[6] = combination: IPA 1 μM + EGFRi 1 μM, PC9, 72 h, relative to DMSO
[7] = combination: MK-28 20 μM + EGFRi 0.1 μM, PC9, 72 h, relative to DMSO
[8] = combination: MK-28 20 μM + EGFRi 1 μM, PC9, 72 h, relative to DMSO
[9] = single agent, EGFRi 0.1 μM, PC9, 72 h, relative to DMSO, mean of biological triplicates
[10] = single agent, EGFRi 1 μM, PC9, 72 h, relative to DMSO, mean of biological triplicates
[11] = combination: CCT-020312 2 μM + EGFRi 0.01 μM, PC9, 72 h, relative to DMSO
[12] = combination: DHBDC 50 μM + EGFRi 0.01 μM, PC9, 72 h, relative to DMSO
[13] = combination: IPA 1 μM + EGFRi 0.01 μM, PC9, 72 h, relative to DMSO
[14] = combination: MK-28 20 μM + EGFRi 0.01 μM, PC9, 72 h, relative to DMSO
[15] = single agent, EGFRi 0.01 μM, PC9, 72 h, relative to DMSO, mean of biological triplicates

Row | Structure (SMILES) | CCT-020312 + Low EGFRi, fold decrease in cell viability (μ) [1] [fold] | CCT-020312 + High EGFRi, fold decrease in cell viability (μ) [2] [fold] | DHBDC + Low EGFRi, fold decrease in cell viability (μ) [3] [fold] | DHBDC + High EGFRi, fold decrease in cell viability (μ) [4] [fold] | IPA + Low EGFRi, fold decrease in cell viability (μ) [5] [fold] | IPA + High EGFRi, fold decrease in cell viability (μ) [6] [fold] | MK-28 + Low EGFRI, fold decrease in cell viability (μ) [7] [fold] | MK-28 + High EGFRi, fold decrease in cell viability (μ) [8] [fold] | Low EGFRi, fold decrease in cell viability (μ) [9] [fold] | High EGFRi, fold decrease in cell viability (μ) [10] [fold] | CCT-020312 + Low EGFRi, fold decrease in cell viability (μ) [11] [fold] | CCT-020312 + High EGFRi, fold decrease in cell viability (μ) [1] [fold] | DHBDC + Low EGFRi, fold decrease in cell viability (μ) [12] [fold] | DHBDC + High EGFRi, fold decrease in cell viability (μ) [3] [fold] | IPA + Low EGFRi, fold decrease in cell viability (μ) [13] [fold] | IPA + High EGFRi, fold decrease in cell viability (μ) [5] [fold] | MK-28 + Low EGFRI, fold decrease in cell viability (μ) [14] [fold] | MK-28 + High EGFRi, fold decrease in cell viability (μ) [7] [fold] | Low EGFRi, fold decrease in cell viability (μ) [15] [fold] | High EGFRi, fold decrease in cell viability (μ) [9] [fold] | also measured
1 | Cc1cc(C(=O)Nc2nc3cccc(Cl)c3n2[C@@H]2CCCCN(C(=O)/C=C/CN(C)C)C2)ccn1 (racemic) [Nazartinib, N-[7-chloro-1-[rac-(3R)-1-[rac-(E)-4-(dimethylamino)but-2-enoyl]azepan-3-yl]benzimidazol-2-yl]-2-methyl-pyridine-4-carboxamide] | 255.4 | 1514.1 | 25.8 | 53.6 | 44.0 | 205.5 | 130.5 | 421.8 | 6.3 | 15.0 |  |  |  |  |  |  |  |  |  |  | 
2 | C=CC(=O)N[C@H]1C=C(C)c2c(-c3cnc4ccccc4c3)c3c(N)ncnc3n2C1 (racemic) [TAS-6417, N-[rac-(8S)-4-amino-6-methyl-5-(3-quinolyl)-8,9-dihydropyrimido[5,4-b]indolizin-8-yl]prop-2-enamide] |  |  |  |  |  |  |  |  |  |  | 505.3 | 1235.6 | 50.9 | 71.8 | 72.3 | 89.5 | 158.3 | 301.6 | 10.5 | 13.6 | 
3 | COc1cc2ncnc(Nc3ccc(F)c(Cl)c3)c2cc1NC(=O)/C=C/CN1CCCCC1 [Dacomitinib, (E)-N-[4-(3-chloro-4-fluoro-anilino)-7-methoxy-quinazolin-6-yl]-4-(1-piperidyl)but-2-enamide] |  |  |  |  |  |  |  |  |  |  | 731.1 | 1325.3 | 66.5 | 85.2 | 79.2 | 275.2 | 170.8 | 241.8 | 13.6 | 14.5 | 
4 | C=CC(=O)Nc1cc(Nc2nccc(-c3cn(C)c4ccccc34)n2)c(OC)cc1N(C)CCN(C)C [Osimertinib, N-[2-[2-(dimethylamino)ethyl-methyl-amino]-4-methoxy-5-[[4-(1-methylindol-3-yl)pyrimidin-2-yl]amino]phenyl]prop-2-enamide] |  |  |  |  |  |  |  |  |  |  |  |  |  |  |  |  |  |  |  |  | CCT-020312 + High EGFRi, fold decrease in cell viability (μ): 836.5 fold; CCT-020312 + Low EGFRi, fold decrease in cell viability (μ): 38.4 fold; DHBDC + High EGFRi, fold decrease in cell viability (μ): 64.2 fold; DHBDC + Low EGFRi, fold decrease in cell viability (μ): 13.6 fold; High EGFRi, fold decrease in cell viability (μ): 12.6 fold; IPA + High EGFRi, fold decrease in cell viability (μ): 67.3 fold; IPA + Low EGFRi, fold decrease in cell viability (μ): 9.9 fold; Low EGFRi, fold decrease in cell viability (μ): 2.1 fold; MK-28 + High EGFRi, fold decrease in cell viability (μ): 220.3 fold; MK-28 + Low EGFRI, fold decrease in cell viability (μ): 72.7 fold
5 | C=CC(=O)N1CCC(Oc2cc3c(Nc4ccc(Cl)c(Cl)c4F)ncnc3cc2OC)CC1 [Poziotinib, 1-[4-[4-(3,4-dichloro-2-fluoro-anilino)-7-methoxy-quinazolin-6-yl]oxy-1-piperidyl]prop-2-en-1-one] |  |  |  |  |  |  |  |  |  |  | 716.9 | 1168.4 | 74.1 | 88.4 | 107.6 | 132.4 | 181.5 | 295.2 | 14.3 | 15.4 | 
6 | C=CC(=O)Nc1cccc(Nc2nc(Nc3ccc(N4CCN(C(C)=O)CC4)cc3OC)ncc2C(F)(F)F)c1 [Rociletinib, N-[3-[[2-[4-(4-acetylpiperazin-1-yl)-2-methoxy-anilino]-5-(trifluoromethyl)pyrimidin-4-yl]amino]phenyl]prop-2-enamide] | 5.1 | 446.1 | 5.3 | 88.0 | 6.4 | 142.3 | 49.2 | 268.9 | 1.3 | 7.0 |  |  |  |  |  |  |  |  |  |  | 
7 | C=CC(=O)Nc1cccc(Oc2nc(Nc3ccc(N4CCN(C)CC4)cc3OC)ncc2Cl)c1 [WZ-4002, N-[3-[5-chloro-2-[2-methoxy-4-(4-methylpiperazin-1-yl)anilino]pyrimidin-4-yl]oxyphenyl]prop-2-enamide] | 49.8 | 1482.6 | 13.2 | 52.0 | 10.3 | 106.0 | 120.3 | 422.1 | 2.6 | 13.5 |  |  |  |  |  |  |  |  |  |  | 
